Assay results from ChEMBL document CHEMBL1201862, “PubChem BioAssay data set” (2004).
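Protocol summary: plate cells (96-well), add compound at 5 concentrations, incubate 48 h, interpolate endpoints linearly. GI50 is the concentration that inhibits growth by half.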 Active and inactive are the calls of the source. Cut-off read from the data, not from the text of the source: active = GI50 up to about 1.1 µM and inactive = higher.

How the values were obtained:
Experiment in all cases: NCI tumour cell line growth inhibition, 48 h
SN12C = test system: SN12C
Malme-3M = test system: Malme-3M
SK-MEL-2 = test system: SK-MEL-2
OVCAR-3 = test system: OVCAR-3
SF-268 = test system: SF-268
TK-10 = test system: TK-10
NCI-H226 = test system: NCI-H226
CCRF-CEM = test system: CCRF-CEM
UO-31 = test system: UO-31
HL-60 = test system: HL-60
COLO 205 = test system: COLO 205
HOP-62 = test system: HOP-62
UACC-62 = test system: UACC-62
HCT-15 = test system: HCT-15
A549 = test system: A549
NCI-H23 = test system: NCI-H23
SF-539 = test system: SF-539

Measured: GI50

COC(=O)C(Cc1nc2ccc(Cl)cc2nc1O)/C(=N/O)C(=O)Nc1cccc(Cl)c1C (configuration not stated)
> 100 µM: HCT-15
inactive: SN12C > 100 µM | Malme-3M > 100 µM | SK-MEL-2 > 100 µM | OVCAR-3 > 100 µM | SF-268 > 100 µM | TK-10 > 100 µM | NCI-H226 > 100 µM | CCRF-CEM > 100 µM | UO-31 > 100 µM | HL-60 > 100 µM | COLO 205 > 100 µM | HOP-62 > 100 µM | UACC-62 > 100 µM | A549 > 100 µM | NCI-H23 > 100 µM | SF-539 > 100 µM

CC(C)OC(=O)C1Cc2c([nH]c3ccccc23)C(c2ccccc2)N1 (configuration not stated)
75.3 µM: HCT-15
inactive: SN12C > 100 µM | Malme-3M 25.7 µM | SK-MEL-2 18.2 µM | OVCAR-3 > 100 µM | SF-268 56.9 µM | TK-10 > 100 µM | NCI-H226 > 100 µM | CCRF-CEM 79.4 µM | UO-31 18 µM | HL-60 33 µM | COLO 205 > 100 µM | HOP-62 23.4 µM | UACC-62 > 100 µM | A549 66.1 µM | NCI-H23 67.1 µM | SF-539 > 100 µM

CCOC(=O)/C(C#N)=C1/C(O)=C(C(=O)OC)C(C(=O)OC)=C1C(=O)OC.c1ccncc1
inactive: SN12C > 100 µM | Malme-3M > 100 µM | SK-MEL-2 > 100 µM | OVCAR-3 > 100 µM | SF-268 > 100 µM | TK-10 > 100 µM | CCRF-CEM > 100 µM | UO-31 > 100 µM | HL-60 > 100 µM | COLO 205 > 100 µM | UACC-62 > 100 µM | A549 > 100 µM | NCI-H23 > 100 µM | SF-539 > 100 µM
> 100 µM: HCT-15

CCOc1cccc2sc(N)nc12
> 100 µM: HCT-15
inactive: SN12C > 100 µM | Malme-3M > 100 µM | SK-MEL-2 > 100 µM | OVCAR-3 > 100 µM | SF-268 > 100 µM | TK-10 > 100 µM | NCI-H226 > 100 µM | UO-31 56.1 µM | HL-60 > 100 µM | COLO 205 > 100 µM | HOP-62 > 100 µM | UACC-62 > 100 µM | A549 > 100 µM | NCI-H23 > 100 µM | SF-539 > 100 µM

C[N+](C)(C)CC(=O)N/N=C(\CCC(=O)NCCc1ccccc1)CC(=O)c1ccccc1
> 100 µM: HCT-15
inactive: SN12C > 100 µM | Malme-3M > 100 µM | SK-MEL-2 > 100 µM | OVCAR-3 > 100 µM | SF-268 > 100 µM | TK-10 > 100 µM | NCI-H226 > 100 µM | CCRF-CEM > 100 µM | UO-31 > 100 µM | HL-60 > 100 µM | COLO 205 > 100 µM | HOP-62 > 100 µM | UACC-62 > 100 µM | A549 > 100 µM | NCI-H23 > 100 µM | SF-539 > 100 µM

COc1cc(C(=O)C/C(CCC(=O)Nc2ccc(Cl)cc2Cl)=N/NC(=O)C(N)=O)ccc1O
inactive: SN12C > 100 µM | Malme-3M > 100 µM | SK-MEL-2 > 100 µM | OVCAR-3 > 100 µM | SF-268 > 100 µM | TK-10 > 100 µM | NCI-H226 > 100 µM | CCRF-CEM > 100 µM | UO-31 72.9 µM | HL-60 > 100 µM | COLO 205 > 100 µM | HOP-62 79.6 µM | UACC-62 65.9 µM | A549 > 100 µM | NCI-H23 > 100 µM | SF-539 > 100 µM
> 100 µM: HCT-15

COc1cccc(N[C@@H]2c3cc4c(cc3C(c3cc(OC)c(O)c(OC)c3)[C@H]3C(=O)OCC32)OCO4)c1 (some centres not stated)
inactive: Malme-3M 1.79 µM | SK-MEL-2 3.76 µM | OVCAR-3 8.53 µM | COLO 205 2.11 µM
0.552 µM: HCT-15
active: SN12C 0.681 µM | SF-268 0.681 µM | NCI-H226 0.249 µM | CCRF-CEM 0.0546 µM | UO-31 0.302 µM | HL-60 0.0499 µM | HOP-62 0.191 µM | UACC-62 0.24 µM | A549 0.0213 µM | NCI-H23 0.587 µM | SF-539 0.369 µM

COc1cc2c(c(OC)c1OC)-c1ccc(SC)c(=O)cc1[C@@H](NCc1ccc(C#N)cc1)CC2
active: SN12C 0.00449 µM | Malme-3M 0.00564 µM | SK-MEL-2 0.00703 µM | OVCAR-3 0.00321 µM | SF-268 0.00612 µM | TK-10 0.00811 µM | NCI-H226 0.00391 µM | CCRF-CEM 0.00414 µM | UO-31 0.0764 µM | HL-60 0.00301 µM | COLO 205 0.0035 µM | HOP-62 0.004 µM | UACC-62 0.00264 µM | A549 0.00411 µM | NCI-H23 0.00274 µM | SF-539 0.00252 µM
0.00472 µM: HCT-15
